# According to patent publication US9789130B2, “Method for blocking HIV entry into dendritic cells by inhibiting sialoadhesin-sialyllactose binding interactions with gangliosides” (LABORATORIOS DEL DR. ESTEVE, S.A., priority 2011, dated 2017):
# Assays:
# [1] = biological target: T1, Siglec-1 (Homo sapiens, UniProt Q9BZZ2); assay: VLP capture by Siglec-1 transfected Raji B cells; type: cell-based; settings: mAbs 10 μg/ml; sialyllactose at indicated concentrations, 30 min prior to VLP pulse
# Procedure: Raji cells (2×10^6) were transfected with vector backbone pCMV6-Entry (Origene) comprising the coding region of Siglec-1, Siglec-5, or Siglec-7 using Amaxa nucleofector as recommended by the manufacturer. At 36 h posttransfection, cells were assessed for VLP capture and HIV-1 trans-infection (at a ratio 2:1) as described above. When indicated, cells were pre-incubated with decreasing concentrations of 3′-Sialyllactose (Carbosynth) or Lactose (Sigma-Aldrich) 30 min prior to VLP pulse. In experiments with envelope-deficient viruses, 5×10^5 cells were pulsed with 100 ng of p24^Gag estimated by ELISA for 4 h at 37° C. and assessed for capture and trans-infection (at a ratio 2:1) as aforementioned. HEK-293T cells were transfected using Fugene HD (Promega) and assessed 24 h posttransfection as described for Raji cells. Trans-infection of HEK-293T was tested in a different luminometer (Luminoskan Ascent, Thermo Labsystems), and collected data were normalized to 100%. Transfection efficiency in both cell types was assessed staining cells with anti-Siglec-1-PE 7-239 mAb, anti-Siglec-7-PE 5-386 mAb (AbD Serotec), and anti-Siglec-5/14-PE 1A5 mAb (Biolegend) and evaluated by FACS. Stable Raji DC-SIGN cells were labeled with anti-DC-SIGN-PE DCN46 mAb (BD Pharmigen).
# [2] = system: mDCs; assay: Lactose and GM3 polar head group treatment of mDCs before LUV/VLP capture; type: cell-based, human; settings: mDCs pre-incubated with 5 to 10 mM compound, relative to mock-treated mDCs
# Procedure: mDCs were preincubated with or without 5 or 10 mM of lactose (Sigma-Aldrich Co., Saint Louis, Mo., US) and soluble GM3 carbohydrate head group (Carbosynth Ltd., Compton, Berkshire, GB) for 30 min at RT. Cells were then pulsed with 50 μM of GM3-containing LUVHIv-tRed and 75 ng of sucrose-pelleted VLPHIv-Gag-eGFP Gag for 2 h at 37° C., at a final concentration of 5 or 10 mM for the compounds tested. Cells were analyzed by FACS as described previously.
# [3] = biological target: T1, Siglec-1; assay: VLP capture by LPS mDCs pre-incubated with α-Siglec-1 mAbs; type: cell-based; parameters: Siglec-1 expressed in LPS mDCs capture distinct ganglioside containing vesicles; endogenous in cells; host or cells: LPS-matured monocyte-derived dendritic cells (LPS mDCs) from donor PBMCs; settings: 2 μg/ml mAb 7D2 treated with at least 100-fold molar excess of human recombinant protein
# Procedure: FIG. 11. Siglec-1 expressed in LPS mDCs capture distinct ganglioside containing vesicles, such as HIV-1 viral-like particles, liposomes, and exosomes. Capture of VLPHIV-Gag-eGFP by LPS mDCs that had been pre-incubated with decreasing concentrations of α-Siglec-1 mAb 7D2 before VLP exposure for 30 min at 37° C.
# FIG. 12. Capture of VLPHIV-Gag-eGFP by LPS mDCs that had been pre-incubated with or without 2 μg/ml of α-Siglec-1 mAb 7D2 previously treated or not with at least a 100-fold molar excess of the indicated human recombinant proteins. Of note, Siglec-14 shares 100% of amino acid homology with Siglec-5 in the V-set domain.
# FIG. 13. Blocking effect of α-Siglec-1 mAb 7-239. (A) Capture of VLPHIV-Gag-eGFP by LPS mDCs that had been pre-incubated with decreasing concentrations of α-Siglec-1 mAb 7-239 before VLP exposure for 30 min at 37° C. […] (B) Capture of VLPHIV-Gag-eGFP by LPS mDCs that had been pre-incubated with 10 μg/ml of the indicated mAbs before VLP exposure for 3 h at 37° C.
# T1 sequence (Q9BZZ2 20-1709): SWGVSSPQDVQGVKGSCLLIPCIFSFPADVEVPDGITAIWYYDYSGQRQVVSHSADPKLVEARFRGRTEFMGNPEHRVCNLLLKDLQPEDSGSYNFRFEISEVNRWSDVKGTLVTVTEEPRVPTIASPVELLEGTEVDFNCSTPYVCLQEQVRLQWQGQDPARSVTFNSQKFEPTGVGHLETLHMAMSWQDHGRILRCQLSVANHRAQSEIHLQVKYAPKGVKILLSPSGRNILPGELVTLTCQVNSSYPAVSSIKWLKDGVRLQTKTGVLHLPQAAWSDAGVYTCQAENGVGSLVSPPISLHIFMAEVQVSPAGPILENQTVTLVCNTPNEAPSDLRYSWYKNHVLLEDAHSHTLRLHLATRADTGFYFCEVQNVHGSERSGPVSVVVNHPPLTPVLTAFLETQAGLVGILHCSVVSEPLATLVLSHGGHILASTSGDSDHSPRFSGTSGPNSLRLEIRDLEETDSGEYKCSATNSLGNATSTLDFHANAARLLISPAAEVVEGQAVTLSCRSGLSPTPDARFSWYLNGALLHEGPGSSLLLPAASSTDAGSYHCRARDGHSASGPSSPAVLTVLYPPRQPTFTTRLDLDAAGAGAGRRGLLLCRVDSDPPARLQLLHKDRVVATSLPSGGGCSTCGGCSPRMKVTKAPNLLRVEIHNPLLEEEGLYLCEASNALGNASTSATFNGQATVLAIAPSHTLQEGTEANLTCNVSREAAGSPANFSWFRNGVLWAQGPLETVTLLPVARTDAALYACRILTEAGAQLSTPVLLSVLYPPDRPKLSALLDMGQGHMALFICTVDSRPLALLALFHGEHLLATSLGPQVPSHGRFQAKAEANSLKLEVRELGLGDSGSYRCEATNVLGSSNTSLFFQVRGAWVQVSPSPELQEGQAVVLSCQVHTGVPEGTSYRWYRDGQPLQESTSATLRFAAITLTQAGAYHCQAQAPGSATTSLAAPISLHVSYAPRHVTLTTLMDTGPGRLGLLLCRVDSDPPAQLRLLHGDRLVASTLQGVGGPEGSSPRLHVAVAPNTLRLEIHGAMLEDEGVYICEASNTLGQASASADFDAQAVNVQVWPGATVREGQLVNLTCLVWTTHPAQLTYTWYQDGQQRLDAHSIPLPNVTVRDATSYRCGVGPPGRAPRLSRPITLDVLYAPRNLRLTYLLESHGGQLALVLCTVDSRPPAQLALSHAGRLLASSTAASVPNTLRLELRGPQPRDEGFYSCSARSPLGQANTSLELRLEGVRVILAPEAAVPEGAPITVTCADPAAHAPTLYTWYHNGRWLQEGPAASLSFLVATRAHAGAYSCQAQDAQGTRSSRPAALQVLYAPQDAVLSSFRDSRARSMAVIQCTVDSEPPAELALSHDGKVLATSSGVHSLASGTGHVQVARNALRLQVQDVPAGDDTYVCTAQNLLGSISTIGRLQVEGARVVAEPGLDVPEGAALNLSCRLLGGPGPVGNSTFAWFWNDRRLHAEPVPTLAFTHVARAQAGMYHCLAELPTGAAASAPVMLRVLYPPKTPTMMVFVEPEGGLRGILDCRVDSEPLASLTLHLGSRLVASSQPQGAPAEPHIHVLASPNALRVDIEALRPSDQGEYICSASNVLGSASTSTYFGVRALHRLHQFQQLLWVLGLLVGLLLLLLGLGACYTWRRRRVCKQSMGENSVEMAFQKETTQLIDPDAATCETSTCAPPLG
compound,measurement,setting,value
"CC(=O)N[C@H]1[C@H]([C@H](O)[C@H](O)CO)O[C@@](O[C@H]2[C@@H](O)[C@@H](CO)O[C@@H](O[C@H]3[C@H](O)[C@@H](O)C(O)O[C@@H]3CO)[C@@H]2O)(C(=O)O)C[C@@H]1O (stereo partly drawn) [sialyllactose, 3′-Sialyllactose]",VLPHIV-Gag-eGFP capture by Siglec-1 transfected Raji cells after pre-incubation with inhibitor,[1],blocked VLP capture
CC(=O)N[C@H]1[C@H]([C@H](O)[C@H](O)CO)O[C@@](O[C@H]2[C@@H](O)[C@@H](CO)O[C@@H](O[C@H]3[C@H](O)[C@@H](O)C(O)O[C@@H]3CO)[C@@H]2O)(C(=O)O)C[C@@H]1O (stereo partly drawn) [soluble GM3],capture of GM3-containing LUVHIV-tRed by mDCs in the presence of soluble carbohydrate,[2],completely blocked
same,capture of VLPHIV-Gag-eGFP by mDCs in the presence of soluble carbohydrate,[2],completely blocked
same,capture of GM3-containing LUVHIV-tRed by mDCs in the presence of soluble carbohydrate,[2]; listed as GM3 polar head group,captured less particles
same,capture of VLPHIV-Gag-eGFP by mDCs in the presence of soluble carbohydrate,[2]; listed as GM3 polar head group,captured less particles
purified Siglec-1: human recombinant Siglec-1 protein used to pre-treat mAb 7D2,VLP capture by LPS mDCs with mAb 7D2 pre-incubated with purified protein,[3],completely restored VLP capture
